PubChem BioAssay AID623924 (Vanderbilt Specialized Chemistry Center, 2012)
Active and inactive are the calls of the source.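 The calls were made as follows: active = response changes with concentration, giving a dose-dependent curve as judged by the depositor; inactive = the rest, with no dose-dependent response.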

Target: Muscarinic acetylcholine receptor M1 (Homo sapiens) (UniProt P11229)
Assay: potentiation of ACh response at hM1 – CHO-K1 cells, calcium fluorescence, selectivity assay for M4 PAM optimization, SAR follow-up (AID 623924)
Details: ACh EC20 potentiation

Chain of Muscarinic acetylcholine receptor M1 (Homo sapiens) (P11229 whole entry, looked up): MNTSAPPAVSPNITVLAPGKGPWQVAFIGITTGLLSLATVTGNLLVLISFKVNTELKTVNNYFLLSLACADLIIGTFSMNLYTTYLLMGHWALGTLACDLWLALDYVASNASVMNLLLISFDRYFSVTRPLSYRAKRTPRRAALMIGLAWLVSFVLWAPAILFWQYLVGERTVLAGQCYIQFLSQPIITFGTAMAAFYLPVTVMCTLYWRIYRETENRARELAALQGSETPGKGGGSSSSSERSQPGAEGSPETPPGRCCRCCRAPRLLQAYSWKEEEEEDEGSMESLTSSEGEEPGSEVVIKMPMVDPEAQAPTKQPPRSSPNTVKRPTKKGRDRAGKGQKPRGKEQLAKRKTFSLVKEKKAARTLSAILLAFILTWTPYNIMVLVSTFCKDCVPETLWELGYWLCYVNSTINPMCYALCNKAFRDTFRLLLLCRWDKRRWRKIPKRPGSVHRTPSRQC

Structure (SMILES) | outcome | EC50 [µM]
Cc1nc2sc(C(=O)NCc3ccc4c(c3)OCO4)c(N)c2c(C)c1Cl | inactive | –
Cc1nc2sc(C(=O)NCc3ccccc3)c(N)c2c(C)c1Cl | inactive | –
Cc1nc2sc(C(=O)NC3CC3)c(N)c2c(C)c1Cl | – | 0.969

Now from value to compound:

outcome | EC50 [µM] | Structure (SMILES)
inactive | – | Cc1nc2sc(C(=O)NCc3ccncc3)c(N)c2c(C)c1Cl
inactive | – | Cc1nc2sc(C(=O)NCc3cccnc3)c(N)c2c(C)c1Cl

Same assay, conditions: ACh EC20 potentiation, at 30 µM (top of the series)

Structure (SMILES) | % ACh max response
Cc1nc2sc(C(=O)NCc3nccs3)c(N)c2c(C)c1Cl | inactive
COc1ccc(C)c2sc(NC(=O)c3ccncc3)nc12 | inactive
Cc1nc2sc(C(=O)NCc3cccc(F)c3F)c(N)c2c(C)c1Cl | inactive

Other lines, results leading:

% ACh max response | Structure (SMILES)
inactive | Cc1nc2sc(C(=O)NCc3ccncn3)c(N)c2c(C)c1Cl
inactive | Cc1nc2sc(C(=O)NCCc3ccncc3)c(N)c2c(C)c1Cl
